From a melting point compilation (Tetko et al.; mined from patent text by program, amines drawn as free bases though some values may be those of a salt)

| Compound | melting point [°C] |
| --- | --- |
| CN(C)c1ccc(-c2[nH]c(-c3ccc([N+](=O)[O-])cc3)nc2C(=O)Nc2nccs2)cc1 | 250 to 251 |
| CC1=NN(c2cc(Cl)c(C(=O)c3ccc(Cl)cc3)c(Cl)c2)C(=O)NC1 | 257 to 259 |
| O=C1c2ccccc2C(=O)N1C(O)C1OC(n2ccc(=O)[nH]c2=O)CC1O (stereo unspecified) | 241 to 242 |
| CC(C)(C)OC(=O)C(=NO)C(=O)CCOCc1ccccc1 | 98 to 100 |
| Cc1ccc(-c2ccc3c(c2)C=C(C(=O)O)CC(C)O3)cc1 (stereo unspecified) | 224 to 225 |
| O=C(O)Cc1ccc2[nH]c(=O)[nH]c2c1 | 161 |
| CC(=O)Oc1c(C)c(C)c2c(c1C)C(O)CC(C)(COc1ccc([N+](=O)[O-])cc1)O2 (stereo unspecified) | 139 to 141 |
| CN1CCN(S(=O)(=O)c2ccc3c(c2)C(=O)c2ccccc2C3=O)CC1 | 216 to 218 |
| O=C(O)CCCc1cc2nc(Cl)ccc2n1S(=O)(=O)c1ccc2ncccc2c1 | 153 to 162 |
| COC(=O)c1c(Br)c(Cl)cc2nn(C)cc12 | 141 to 142 |
| CC(=O)NCCn1cccc1 | 59 to 60 |
| COc1ccc(C2=NN(C3CCN(S(=O)(=O)c4ccccc4C#N)CC3)C(=O)CC2)cc1OC | 158 to 160 |
| C#CCN1C(=O)COc2ccc(-n3c(OC)nc(C(F)(F)F)cc3=O)cc21 | 218 to 220 |
| Cn1c(C(F)(F)F)cc(=O)n(-c2cc(OC(=O)C3CCCCC3)c(Cl)cc2F)c1=O | 97 to 101 |
| CC(=O)COc1cc(-c2ncc(C(F)(F)F)cc2Cl)ccc1C#N | 146 to 147 |
| CCN(CC)CCNS(=O)(=O)c1ccc(Nc2ncnc3ccc(Cl)cc23)cc1 | 110 to 113 |
| N#CC(C#N)=C(NCCN1CCCCC1)N1CCC(N2CCCCC2)CC1 | 198 to 200 |
| CN1CCN(c2cncc(Cl)n2)CC1=O | 122 to 123 |
| CCOc1ccc(F)c2c1c(CCN(C)C)cn2CC | 59 to 60 |
| CCOC(=O)CC(O)CP(=O)(OCC)OCC (stereo unspecified) | 33 to 35 |
| O=C(O)COc1c(-c2cccc(Cl)c2)cc(C(=O)NCCCCCCc2ccccc2)cc1-c1cccc(Cl)c1 | 178 to 181 |
| COc1cccc(C2(O)c3c(C)c(NC(=O)CC(C)(C)C)c(C)c(C)c3OC2(C)C)c1 (stereo unspecified) | 154 to 155 |
| Cc1nc2ccccc2c(NCc2ccccc2)c1C(=O)O | 190 |
| N#Cc1cnn(-c2ccc(NN)nn2)c1N | 264 to 266 |
| O=S1(=O)c2cccc3cccc(c23)N1CCCN1CCC(c2c[nH]c3ccccc23)CC1 | 162 |
| CC(C)(C)c1cc(C(O)C#Cc2ccc(C(=O)O)cc2)ccc1N1CCCC1 (stereo unspecified) | 150 |

| Compound | melting point [°C] |
| --- | --- |
| CCC(=Cc1cn(CC(=O)N(C)CCc2ccccc2)c2ccc(OCc3ccccc3)cc12)C(=O)O | 205 to 207 |
| O=C(c1cc(C(F)(F)F)cc(C(F)(F)F)c1)N1CCC(Nc2nc3cccnc3n2Cc2ccco2)CC1Cc1ccccc1 (stereo unspecified) | 109 |
| COC(=O)C1=C(C)NC(C)=C(C(=O)OCCN2C(=O)c3ccccc3C2=O)C1c1cccc([N+](=O)[O-])c1 (stereo unspecified) | 182 |
| O=C(OCC1CC1)c1ncn2c1C1C=CCN1C(=O)c1c(Cl)cccc1-2 (stereo unspecified) | 189 to 190 |
| O=C(NCc1cccnc1)c1ccc2n1Cc1ccccc1N(C(=O)CSc1ccc(Br)cc1)C2 | 136 to 137 |
| COc1ccc(-c2nc(C(N)(C(F)(F)F)C(F)(F)F)[nH]c2-c2ccc(OC)cc2)cc1 | 127 to 128 |
| C=C(C)C(=O)Oc1ccc(S(=O)(=O)ON=C(C#N)c2cccs2)cc1 | 165 to 166 |
| O=c1[nH]c(-c2ccccc2F)nc2c1CCCC2 | 170 |
| CC1(C)COC(c2ccccc2)(c2ccc(N)c([N+](=O)[O-])c2)OC1 | 140 |
| N#Cc1cnc2sc(-c3ccccc3)cc2c1-c1ccc2[nH]ccc2c1 | > 245 |
| CC1(C)OCC(CBr)(CBr)CO1 | 56 to 58 |
| CN1C(=O)N(CC(=O)COC(C)(C)C)C(=O)C1(C)C | 61 to 63 |
| Cc1ccc(O)c(-c2csc(N(C)C)n2)c1 | 108 to 110 |
| COC(=O)CCC(=O)OC(=C1C(=O)N(C(N)=O)c2cc(Cl)c(F)cc21)c1cccs1 | 179 to 183 |
| COc1cc2ncnc(N3CCCc4ccccc43)c2cc1SC | 193 to 196 |
| Cn1nc(N=Cc2ccncc2)nc1NCCCOC1=CCC=C(CN2CCCC2)C1 | 166 to 167 |
| Cc1ccccc1C=C1CCn2c1nc1ccc(CO)cc1c2=O | 222 to 224 |
| CCCCCCCCCCCc1coc(N)n1 | 55 to 58 |
| CCN(CC)c1cc2c(cc1C)Nc1c(cc(NC(C)=O)c3ncn(C)c13)O2 | 217 to 218 |
| Cc1cc(Cl)nc(SCC#N)n1 | 62 to 65 |
| Cc1nc(Sc2ccc([N+](=O)[O-])cc2)nc(C)c1Cl | 110 |
| CCCCCCC(C)(C)c1cc(OC)c(C2C(=O)[C@]3(C)CC[C@H]2C3(C)C)c(OC)c1 (stereo partly specified) | 64 to 65 |
| O=C(O)c1cn(C2CC2)c2cc(Cl)ncc2c1=O | 226 to 227 |
| CCOC(=O)c1c(O)ccc(Cc2c[nH]cn2)c1C | 42 to 45 |
| COc1cc(Cc2cnc(N)nc2N)cc(Br)c1OC | 204 to 205 |
| CCc1ccc(OC(CC)C(=O)OC2CC(O)C=C3C=CC(C)C(CCC4CC(O)CC(=O)O4)C32)cc1 (mixture of isomers) | 139 to 140 |

| Compound | melting point [°C] |
| --- | --- |
| N#CC(Sc1ccc(Cl)cc1)=C1SCCN1c1ccccc1 | 144 to 146 |
| COc1ccccc1C(=O)Nc1ccc(C(=O)N2Cc3cccn3Cc3ccccc32)cc1 | 185 to 188 |
| c1ccc(-n2c3ccccc3c3ccccc32)cc1 | 96 to 97 |
| CCCN1CCOc2cccc3nc4c(c1c23)CCCC4 | 74.5 to 75.5 |
| COc1cc(OC)nc(OC(C(=O)O)C2c3ccccc3CC2C)n1 (stereo unspecified) | 148 to 151 |
| CSc1cc2n(c1C(=O)c1ccc(Cl)cc1)CCC2C(=O)O (stereo unspecified) | 200 to 201 |
| COCOc1cc(OCOC)cc(C(=O)O)c1 | 129 to 130 |
| COc1ccc(C(=O)c2ccc(=O)[nH]c2C)cc1 | 228 to 230 |
| CCOCC(=O)Nc1occ(C(C)(C)C)c1C#N | 98 |
| O=C1NCC(COc2ccccc2)O1 (stereo unspecified) | 108 to 109 |
| COc1ccc(-n2cc(C)cc2-c2ccc(S(N)(=O)=O)cc2)cc1 | 63 to 64 |
| CC(=O)N1CCC(n2ccc(-c3ccc(F)cc3)c2-c2ccncc2)CC1 | 223 to 224 |
| COc1ccccc1NC(=O)Nc1nc(N2CCC(O)CC2)nc(N(CCC(=O)O)Cc2ccc(Cl)c(Cl)c2)n1 | 121 to 124 |
| CCOC(=O)c1sc(NC(=O)NN)nc1C | 225 to 230 |
| COc1cccc([C@H]2O[C@H](CC(=O)Nc3cccc(CCC(=O)O)c3)C(=O)N(CC(C)(C)CO)c3ccc(Cl)cc32)c1OC | 141 to 144 |
| COC(=O)CCc1cnc(C)s1 | 115 |
| CS(=O)(=O)c1ccc(Oc2cc(OCc3ccccc3)c3[nH]c(C#N)cc3c2)cc1 | 209 to 210 |
| O=C(OCC(Cl)(Cl)Cl)Oc1cc2occ(C(=O)O)c(=O)c2cc1OC(=O)OCC(Cl)(Cl)Cl | 166 to 167 |
| Clc1cccc(Oc2ccc(OCc3ccc(Br)s3)cc2)n1 | 78 to 80 |
| Cc1ncn(Nc2ccc(F)cc2)c1-c1ccccc1 | 155 |
| Cc1cc2c(-c3ccc(Br)cc3)c(CC(=O)O)c(=O)oc2cc1Cl | 238 to 239 |
| NC(=O)C(=O)NCCC(F)=C(F)F | 190 to 220 |
| NCCNCC(O)COc1ccccc1C(N)=O (stereo unspecified) | 91 to 93 |
| CCc1n[nH]c(CC)c1CCCCCCOc1ccc(OC)cc1Cl | 91 to 93 |
| Cc1cc(C(=O)CC(O)(c2cc(Cl)cc(Cl)c2)C(F)(F)F)ccc1C(=O)O (stereo unspecified) | 114 to 115 |
| CC(C)(O)COc1c(-c2ccc(S(C)(=O)=O)cc2)cnn(-c2ccc(F)cc2)c1=O | 152 to 154 |

| Compound | melting point [°C] |
| --- | --- |
| Clc1ccc(C=Cc2nc(CNc3ccc(CCCCn4ccnn4)cc3)co2)cc1 | 120 to 122 |
| CCCCCCCCCCCCCc1c[nH]c(C(=O)O)c1 | 150 to 151 |
| CCc1ccc(-c2c(Cl)c(CN3C(=O)CCC3=O)nc3sc4c(c23)CCNC4)cc1 | 157 to 158 |
| CCc1nc2c(C)cc(C)nc2n1Cc1ccc(C(=O)c2ccccc2)cc1 | 98 |
| [O-][N+]1=C(c2ccccc2Cl)c2ccccc2C=CC1 | 115 to 116 |
| CCn1ncc2nc(C(=O)O)c(C)nc21 | 148 to 149 |
| CC1CN(C(=O)COc2nc(-c3ccc(Cl)cc3)nc3c2CCCC3)CC(C)O1 (stereo unspecified) | 265 to 268 |
| CCCc1c(Cl)sc2[nH]c(=O)c(=O)[nH]c12 | 285 to 287 |
| CS(=O)(=O)c1ccc(-c2cnn(CC(F)(F)F)c(=O)c2C2=CCCCC2)cc1 | 75 to 81 |
| CCCCCCC(C(=O)O)n1cnc(NC(=O)c2cccc(O)c2S(=O)(=O)O)c1 (stereo unspecified) | 238 to 240 |
| Cn1nc(C(F)(F)F)cc1Oc1cccc(-c2nc(C(F)(F)F)no2)n1 | 91 to 93 |
| O=S(=O)(c1ccccc1)n1ccnc1 | 82 to 83 |
| CC(C)n1nc(-c2cc(-c3ccccc3)c(N)nc2-c2ccccc2)ccc1=O | 208 to 209 |
| COc1cc(C=C[N+](=O)[O-])c2c(c1OC)CCC2 | 128 to 130 |
| COc1cc(-n2cnc3cc(-c4ccc(Cl)cc4)sc3c2=O)ccc1OC[C@H](OP(=O)(O)O)C1CC1 | 166 |
| Clc1cc(N2CCSCC2)nc(Cl)n1 | 118 to 122 |
| Cc1ccccc1NCN1C(=O)CSC1=O | 109 to 111 |
| CCOC(=O)C(=NOC)C1=CSCCN1C=O | 94 to 96 |
| Cc1cc(Cc2cnc(Cl)nc2Cl)c2cccnc2c1N | 209 to 211 |
| O=C1NC(=O)c2cc(Nc3ccccc3I)c(Nc3ccccc3I)cc21 | 108 to 110 |
| Cc1cc(Oc2cccc(C(F)(F)F)c2)nn1C(=O)Nc1cccc([N+](=O)[O-])c1 | 83 to 86 |
| O=C(NCc1ccc2ccccc2c1)C1=C(C(=O)Nc2cc(OC3CCCC3)c(Cl)cc2F)CCCC1 | 174 to 175 |
| CC(C)(C)OC(=O)N1CCN(C(=O)N2CCOCC2)CC1 | 171 to 173 |
